The test system of one assay is Human CTPS1 Versus CTPS2. Nature of the assay: RapidFire/MS-based enzyme selectivity assay, human CTPS1 versus CTPS2. The assay is classed as biochemical. The settings on record: RapidFire/MS IC50s. The method, then:
Human CTPS1 Versus CTPS2 Selectivity Assessment by RapidFire/MS Analysis.
The enzyme inhibitory activities against each target isoform of interest may be determined for the compounds of the invention using an optimised RapidFire high-throughput mass spectrometry (RF/MS) assay format. RF/MS assays for both human CTPS1 and CTPS2 may be performed in assay buffer consisting of 50 mM HEPES (Merck), 20 mM MgCl2, 5 mM KCl, 1 mM DTT, 0.01% Tween-20, pH to 8.0 accordingly. Human full-length active C-terminal FLAG-His-tag CTPS1 (UniProtKB—P17812, CTPS1[1-591]-[…] (CTPS1[1-591]-SEQ ID NO: 1)) may be obtained from Proteros biostructures GmbH. Human full length active C-terminal FLAG-His-Avi tagged CTPS2 (UniProtKB—Q9NRF8, CTPS2 [1-586]—[…] (CTPS2 [1-586]-SEQ ID NO: 2)) may be obtained from Harker Bio.
Human CTPS (1 or 2) protein may be prepared in 1× assay buffer to the final working protein concentration required for the reaction. A 2 uL volume per well of 2×CTPS (1 or 2) protein may be mixed with 40 nL of compound using acoustic (ECHO) delivery and incubated for 10 minutes at 25° C. Each isoform enzymatic reaction may be subsequently initiated by addition of 2 uL per well of a 2× substrate mix in assay buffer. For hCTPS1: ATP (0.3 mM), UTP (0.2 mM), GTP (0.07 mM) and L-glutamine (0.1 mM). For hCTPS2: ATP (0.1 mM), UTP (0.04 mM), GTP (0.03 mM) and L-glutamine (0.1 mM). Each mixture may be incubated for an appropriate amount of time per isoform within the determined linear phase of the reaction at 25° C. A 60 uL volume of stop solution (1% formic acid with 0.5 uM ^13C9-^15N3-CTP in H2O) may be added and the plate immediately heat-sealed and centrifuged for 10 minutes at 4,000 rpm. Following centrifugation, plates may be loaded onto the Agilent RapidFire microfluidic solid phase extraction system coupled to an API4000 triple quadrupole mass spectrometer (RF/MS) for analysis.
In all cases, the enzyme converts UTP to CTP. Highly specific and sensitive multiple reaction monitoring (MRM) MS methods may be optimised for the detection of the enzymatic reaction product, CTP, and the stable isotope labelled product standard ^13C-^15N-CTP. Readout for data analysis may be calculated as the ratio between the peak area of the product CTP and the internal standard […]. For data reporting, the following equation may be used: […]
For each screening plate, the means of the negative (DMSO) and positive control values were used for the calculation of the respective assay window (S/B) and Z′ values. The median of the respective control values was used for calculation of percent inhibition according to the following equation: […]
(§1) Percentage inhibition was then plotted against compound concentration, and the 50% inhibitory concentration (IC50) was determined from the resultant concentration-response curve.
Fold selectivity between CTPS1 and CTPS2 was subsequently calculated according to the following equation: […]

The next assay deals with T1, human CTPS1 (Homo sapiens, UniProt P17812).
T1 construct: FLAG (GG linker + DYKDDDDK); His8 (GG linker + HHHHHHHH); purchased Proteros biostructures GmbH
T1 sequence (P17812 1-591): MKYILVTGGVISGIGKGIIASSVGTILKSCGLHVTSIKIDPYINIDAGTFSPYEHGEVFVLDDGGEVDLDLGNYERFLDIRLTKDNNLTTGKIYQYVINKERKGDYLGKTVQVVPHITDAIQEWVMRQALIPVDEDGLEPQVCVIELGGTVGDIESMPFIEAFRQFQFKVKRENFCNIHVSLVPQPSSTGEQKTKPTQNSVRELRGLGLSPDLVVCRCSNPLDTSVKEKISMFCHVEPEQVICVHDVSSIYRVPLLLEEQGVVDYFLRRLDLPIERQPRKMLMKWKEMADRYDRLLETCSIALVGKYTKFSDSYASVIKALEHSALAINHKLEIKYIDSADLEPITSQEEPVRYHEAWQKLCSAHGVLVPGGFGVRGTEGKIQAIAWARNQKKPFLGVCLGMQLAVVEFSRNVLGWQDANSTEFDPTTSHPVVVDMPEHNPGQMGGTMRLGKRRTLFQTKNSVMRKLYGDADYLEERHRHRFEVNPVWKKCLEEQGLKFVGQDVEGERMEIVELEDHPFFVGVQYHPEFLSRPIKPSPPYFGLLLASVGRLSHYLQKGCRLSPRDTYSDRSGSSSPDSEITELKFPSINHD
Nature of the assay: Human CTPS1 enzyme inhibition (ADP-Glo Max assay). The class given is biochemical. The settings on record: 25° C., read-out: Human CTPS1 Enzyme Inhibition IC50, grouped by potency range. Here is the method:
The enzyme inhibitory activities of compounds invented against the target of interest were determined using the ADP-Glo™ Max assay (Promega, UK). Assays for human CTPS1 were performed in 1× assay buffer containing 50 mM Tris, 10 mM MgCl2, 0.01% Tween-20, pH to 8.0 accordingly. Finally, immediately before use, L-cysteine was added to the 1× assay buffer to a final concentration of 2 mM. All reagents are from Sigma-Aldrich unless specified otherwise.
Human full length active C-terminal FLAG-Hiss-tag CTPS1 (UniProtKB—P17812, CTPS1[1-591]-[…] (CTPS1[1-591]-SEQ ID NO: 1)) was obtained from Proteros biostructures GmbH.
3× human CTPS1 protein was prepared in 1× assay buffer to the final working protein concentration required for the reaction. A 2 uL volume per well of 3× human CTPS1 protein was mixed with 2 uL per well of 3× test compound (compound prepared in 1× assay buffer to an appropriate final 3× compound concentration respective to the concentration response curve designed for the compounds under test) for 10 minutes at 25° C. The enzymatic reaction was then initiated by addition of a 2 uL per well volume of a pre-mixed substrate mix (UltraPure ATP from ADP-GIo™ Max kit (0.31 mM), GTP (0.034 mM), UTP (0.48 mM) and L-glutamine (0.186 mM)) and the mixture was incubated for an appropriate amount of time within the determined linear phase of the reaction at 25° C. under sealed plate conditions with constant agitation at 500 revolutions per minute (rpm). ADP-GIo™ Max reagent was added for 60 minutes (6 μL per well) and subsequently ADP-GIo™ Max development reagent was added for 60 minutes (12 uL per well) prior to signal detection in a microplate reader (EnVision® Multilabel Reader, Perkin Elmer). Following each reagent addition over the course of the assay, assay plates were pulse centrifuged for 30 seconds at 500 rpm.
In all cases, the enzyme converts ATP to ADP and the ADP-Glo™ Max reagent subsequently depletes any remaining endogenous ATP in the reaction system. The ADP-Glo™ Max detection reagent converts the ADP that has been enzymatically produced back into ATP and using ATP as a substrate together with luciferin for the enzyme luciferase, light is generated which produces a detectable luminescence. […] The percentage inhibition produced by each concentration of compound was calculated using the equation shown below: […]
as §1
(ADP-Glo first removes unused ATP, then detects ADP through luciferase.)

Broadly, the IC50 is the midpoint of a concentration-inhibition curve. On to `CCOc1cncc(-c2ccc(NC(=O)C3(c4ccnc(NS(=O)(=O)C5CC5)n4)CCN(C)CC3)nc2)n1` [P231, 4-(2-(Cyclopropanesulfonamido)pyrimidin-4-yl)-N-(5-(6-ethoxypyrazin-2-yl)pyridin-2-yl)-1-methylpiperidine-4-carboxamide], for which the “Fold selectivity between CTPS1 and CTPS2 (CTPS1)” value in the assay with Human CTPS1 Versus CTPS2 is recorded as “+++ (>60 fold (+++))”. Further, the IC50 at human CTPS1 lay in the range of 0.1 to 1 µM.

Take `CCOc1cncc(-c2ccc(NC(=O)C3(c4ccnc(NS(=O)(=O)C5CC5)n4)CCN(C(C)C)CC3)nc2)n1` [P232, 4-(2-(Cyclopropanesulfonamido)pyrimidin-4-yl)-N-(5-(6-ethoxypyrazin-2-yl)pyridin-2-yl)-1-isopropylpiperidine-4-carboxamide]: the “Fold selectivity between CTPS1 and CTPS2 (CTPS1)” value in the assay with Human CTPS1 Versus CTPS2 was “+++ (>60 fold (+++))”. Further, the half-maximal inhibitory concentration (IC50) on human CTPS1 lay within 0.1 to 1 µM.

With `CCOc1cncc(-c2ccc(NC(=O)C3(c4ccnc(NS(=O)(=O)C5CC5)n4)CCN(C(=O)NC(C)C)CC3)nc2)n1` [P233, 4-(2-(Cyclopropanesulfonamido)pyrimidin-4-yl)-N4-(5-(6-ethoxypyrazin-2-yl)pyridin-2-yl)-N1-isopropylpiperidine-1,4-dicarboxamide], the “Fold selectivity between CTPS1 and CTPS2 (CTPS1)” value with Human CTPS1 Versus CTPS2 is “+++ (>60 fold (+++))”. The IC50 at human CTPS1 was not above 0.1 µM.

For `CCOc1cncc(-c2ccc(NC(=O)C3(c4ccnc(NS(=O)(=O)C5CC5)n4)CCN(C(C)=O)CC3)nc2)n1` [P234, 1-Acetyl-4-(2-(cyclopropanesulfonamido)pyrimidin-4-yl)-N-(5-(6-ethoxypyrazin-2-yl)pyridin-2-yl)piperidine-4-carboxamide], the “Fold selectivity between CTPS1 and CTPS2 (CTPS1)” value in the assay with Human CTPS1 Versus CTPS2 is “+++ (>60 fold (+++))”. Also, the IC50 on human CTPS1 is not above 0.1 µM.

With `CCOc1cncc(-c2ccc(NC(=O)C3(c4ccnc(NS(C)(=O)=O)n4)CCOCC3)nc2)n1` [P236, N-(5-(6-ethoxypyrazin-2-yl)pyridin-2-yl)-4-(2-(methylsulfonamido)pyrimidin-4-yl)tetrahydro-2H-pyran-4-carboxamide], in the assay on Human CTPS1 Versus CTPS2, the “Fold selectivity between CTPS1 and CTPS2 (CTPS1)” value is given as “+++ (>60 fold (+++))”. Moreover, the IC50 at human CTPS1 is not above 0.1 µM.

With `CCOc1cncc(-c2ccc(NC(=O)C3(c4ccnc(NS(=O)(=O)C5CC5)n4)CCCCC3)nc2)n1` [P237, 1-(2-(cyclopropanesulfonamido)pyrimidin-4-yl)-N-(5-(6-ethoxypyrazin-2-yl)pyridin-2-yl)cyclohexane-1-carboxamide], the “Fold selectivity between CTPS1 and CTPS2 (CTPS1)” value with Human CTPS1 Versus CTPS2 is “+++ (>60 fold (+++))”. In addition, on human CTPS1, the IC50 is not above 0.1 µM.

As for `CCOc1cncc(-c2ccc(NC(=O)C3(c4ccnc(NS(C)(=O)=O)n4)CCCCC3)nc2)n1` [P238, N-(5-(6-ethoxypyrazin-2-yl)pyridin-2-yl)-1-(2-(methylsulfonamido)pyrimidin-4-yl)cyclohexane-1-carboxamide], the “Fold selectivity between CTPS1 and CTPS2 (CTPS1)” value with Human CTPS1 Versus CTPS2 is “+++ (>60 fold (+++))”. Moreover, the concentration for half-maximal inhibition (IC50) at human CTPS1 was not above 0.1 µM.

For `CCOc1cncc(-c2ccc(NC(=O)C3(c4cncc(NS(=O)(=O)C5CC5)n4)CCCCC3)nc2)n1` [P239, 1-(6-(cyclopropanesulfonamido)pyrazin-2-yl)-N-(5-(6-ethoxypyrazin-2-yl)pyridin-2-yl)cyclohexane-1-carboxamide], in the assay with Human CTPS1 Versus CTPS2, the “Fold selectivity between CTPS1 and CTPS2 (CTPS1)” value is “+++ (>60 fold (+++))”. At human CTPS1, the IC50 is not above 0.1 µM.

Regarding `CCOc1cncc(-c2ccc(NC(=O)C3(c4ccnc(NS(=O)(=O)C5CC5)n4)CCOCC3)c(C)c2)n1` [P240, 4-(2-(cyclopropanesulfonamido)pyrimidin-4-yl)-N-(4-(6-ethoxypyrazin-2-yl)-2-methylphenyl)tetrahydro-2H-pyran-4-carboxamide], the “Fold selectivity between CTPS1 and CTPS2 (CTPS1)” value in the assay with Human CTPS1 Versus CTPS2 is “+ (2-30 fold (+))”. Besides, the half-maximal inhibitory concentration (IC50) on human CTPS1 is not above 0.1 µM.

Turning to `CCOc1cncc(-c2ccc(NC(=O)C3(c4ccnc(NS(=O)(=O)C5CC5)n4)CCC3)nc2)n1` [P241, 1-(2-(cyclopropanesulfonamido)pyrimidin-4-yl)-N-(5-(6-ethoxypyrazin-2-yl)pyridin-2-yl)cyclobutane-1-carboxamide], the “Fold selectivity between CTPS1 and CTPS2 (CTPS1)” value with Human CTPS1 Versus CTPS2 was “+++ (>60 fold (+++))”. Further, the IC50 on human CTPS1 was not above 0.1 µM.

Turning to `CCOc1cncc(-c2ccc(C(=O)NC3(c4ccnc(NS(=O)(=O)C5CC5)n4)CC3)nc2)n1` [P257, N-(1-(2-(cyclopropanesulfonamido)pyrimidin-4-yl)cyclopropyl)-5-(6-ethoxypyrazin-2-yl)picolinamide], the concentration for half-maximal inhibition (IC50) at human CTPS1 lay in the range of 0.1 to 1 µM.

As for `CCOc1cncc(-c2ccc(NC(=O)C3(c4ccnc(NS(=O)(=O)C5CC5)n4)CCS(=O)(=O)CC3)nc2)n1` [P259, 4-(2-(cyclopropanesulfonamido)pyrimidin-4-yl)-N-(5-(6-ethoxypyrazin-2-yl)pyridin-2-yl)tetrahydro-2H-thiopyran-4-carboxamide 1,1-dioxide], on human CTPS1, the IC50 was not above 0.1 µM.

As to `CCOc1cncc(-c2ccc(NC(=O)C3(c4ccnc(NS(=O)(=O)CC)n4)CCOCC3)nc2)n1` [P262, N-(5-(6-ethoxypyrazin-2-yl)pyridin-2-yl)-4-(2-(ethylsulfonamido)pyrimidin-4-yl)tetrahydro-2H-pyran-4-carboxamide], the IC50 on human CTPS1 was not above 0.1 µM.

As for `CCOc1cncc(-c2ccc(NC(=O)C3(c4ccnc(NS(=O)(=O)CC5CC5)n4)CCOCC3)nc2)n1` [P263, 4-(2-(cyclopropylmethylsulfonamido)pyrimidin-4-yl)-N-(5-(6-ethoxypyrazin-2-yl)pyridin-2-yl)tetrahydro-2H-pyran-4-carboxamide], the half-maximal inhibitory concentration (IC50) on human CTPS1 was 0.1 to 1 µM.

The record behind these values is patent US12466810B2, “N-(5-(6-ethoxypyrazin-2-yl)pyridin-2-yl)-4-(2-(methylsulfonamido)pyrimidin-4-yl) tetrahydro-2H-pyran-4-carboxamide derivatives and related compounds as human CTPS1 inhibitors for the treatment of proliferative diseases” (Step Pharma S.A.S., priority 2019, dated 2025).
